Test results reported in PubChem BioAssay (NCI).
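96-well plates; 48 h exposure; 5 concentrations. Endpoints by linear interpolation between flanking doses. Not reached: highest tested concentration assigned. TGI: concentration producing complete growth inhibition.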

Tests used:
Assay in all cases: growth of human tumour cells (NCI), 48 h
DLD-1 colon = system: DLD-1 colon
DMS 114 small cell lung = system: DMS 114 small cell lung
DMS 273 small cell lung = system: DMS 273 small cell lung
HOP-18 NSCLC = system: HOP-18 NSCLC
KM20L2 colon = system: KM20L2 colon
M19-MEL melanoma = system: M19-MEL melanoma
RXF-631 renal = system: RXF-631 renal
XF 498 CNS = system: XF 498 CNS

| SMILES | TGI (DLD-1 colon) [µM] | TGI (DMS 114 small cell lung) [µM] | TGI (DMS 273 small cell lung) [µM] | TGI (HOP-18 NSCLC) [µM] | TGI (KM20L2 colon) [µM] | TGI (M19-MEL melanoma) [µM] | TGI (RXF-631 renal) [µM] | TGI (XF 498 CNS) [µM] |
| --- | --- | --- | --- | --- | --- | --- | --- | --- |
| CC1(c2cccc3c2C2(O)C=CC4(CCC32)OCCO4)OCCO1 (stereo not drawn) | > 100 | > 100 | > 100 | > 100 | > 100 | > 100 |  |  |
| CC(=O)OCCOCNC(=S)N/N=C/c1ccc2ccccc2n1 | > 100 | 71.3 | > 100 | > 100 | 79.8 | > 100 | > 100 | > 100 |
| COC(=O)C1CC(=O)CCC1c1ccccc1 (stereo not drawn) | > 100 | > 100 | > 100 | > 100 | > 100 | > 100 |  |  |
| C#CCSc1nc(N)c2ncn(C3OC(CO)C(O)C3O)c2n1 (stereo not drawn) | > 100 | > 100 | > 100 |  |  | > 100 |  | > 100 |
| O=C1CSC(/C(=C/c2ccccc2)c2nc3ccccc3[nH]2)=N1 | > 100 | > 100 |  |  | > 100 | > 100 |  | > 100 |
| C=CCC1C(=O)C(C(=O)OC)N2CCc3c([nH]c4ccccc34)C12 (stereo not drawn) | > 100 | > 100 |  |  | > 100 | > 100 |  |  |
| CCCCCCCC(=O)OC[C@@H](C[As](=O)(O)O)OC(=O)CCCCCCC | 27.5 | 22.3 | 26.1 | 44.1 | 31.2 | 31 |  |  |
| CN1C(OCc2ccccc2)c2c(ccc3c2OCO3)C2C=Cc3cc4c(cc3C21)OCO4 (stereo not drawn) | 1.65 | 0.854 |  | 2.61 | 2.95 | 0.361 | 2.09 |  |
| O=C(O)c1c[nH]c2c(=O)[nH]cnc12 | > 100 | > 100 |  | > 100 |  | > 100 | > 100 |  |
| CC1(C)C(c2ccccc2)=NN(O)c2ccccc21 | > 100 |  | > 100 | > 100 | > 100 | > 100 |  |  |
| CC1=CCC2(C#N)CCC1C2O (stereo not drawn) | > 100 | > 100 | > 100 | > 100 | > 100 | > 100 |  | > 100 |
| O=C(C/C(=N\NC(=O)C[n+]1ccccc1)C(=O)Nc1nc2ccc([N+](=O)[O-])cc2s1)CC(c1ccccc1)c1c(O)c2ccccc2oc1=O (stereo not drawn) | > 100 | > 100 |  |  | > 100 | > 100 |  |  |
| C=C[C@@]1(C)CCC2(O)C(CCC3C2(C)CCC[C@@]3(C)COC(=O)CC(=O)OC)C1 (stereo partly drawn) | 32.1 |  |  |  | 33.6 |  | 38.2 | 40.6 |
| COc1ccc(-c2cnoc2-c2ccc(OC)c(OC)c2)cc1OC | > 63.7 | 2.23 | 2.02 | > 59.5 | > 22.4 | 11.3 |  | 9.99 |
| O=C(CC(=O)C(=O)Nc1ccccc1)CC(c1ccccc1)c1c(O)c2ccccc2oc1=O (stereo not drawn) | > 100 | > 100 | > 100 | > 100 | > 100 | > 100 | > 100 |  |
| O=C1c2cccc3cc([N+](=O)[O-])cc(c23)C(=O)N1NC1=NCCN1 | > 100 | > 100 | > 100 | > 100 | > 100 | > 100 | > 100 | > 100 |
